This assay in a line: Shell wheel test (corrosion inhibition). Conditions: 50 ppm of a 24% solution of the inhibitor; salt water/petroleum 9:1, 5% NaCl, pH 3.5; 40 rpm, 70° C., 24 hours; from decrease in coupon mass vs blank. As for the experimental part: The compounds according to the invention were tested as corrosion inhibitors in the Shell wheel test. Coupons of C steel (DIN 1.1203 with 15 cm^2 surface area) were immersed in a salt water/petroleum mixture (9:1, 5% strength NaCl solution adjusted to pH 3.5 with acetic acid) and exposed to this medium at a speed of 40 rpm at 70° C. for 24 hours. The inhibitor dose was 50 ppm of a 24% solution of the inhibitor. The protection values were calculated from the decrease in the mass of the coupons, based on a blank value.

Turning to `CCCCCCCC/C=C\CCCCCCCC(=O)NC(CCSC)C(=O)[O-].[K+]` (racemic) [Example 2, N-Oleoyl-DL-methionine Potassium Salt], the ø protection % was 69%.
